One data set relates to MSTO-211H. Put plainly: Growth inhibition of human MSTO-211H cells after 72 hrs by trypan blue assay. Format: functional.
Another data set deals with HeLa. Put plainly: Growth inhibition of human HeLa cells after 72 hrs by trypan blue assay. Type of data set: functional.
The nature of data set [1]: Growth inhibition of HUVEC after 72 hrs by trypan blue assay. Conditions: human, HUVEC cells. Type of data set: cell-based.
The subject of another data set is A-431. Put plainly: Growth inhibition of human A431 cells after 72 hrs by trypan blue assay. Format: functional. Conditions: A-431, 72 h.
Data set [2] has as its target Cyclin-dependent kinase 1/cyclin B1 (Homo sapiens) (UniProt P06493+P14635). Put plainly: Inhibition of recombinant human CDK1/Cyclin B at 10^-5 M using Ulight-CFFKNIVTPRTPPPSQGK-amide as substrate measured after 15 mins by LANCE assay relative to control. Type of data set: protein-complex assay. For orientation: TR-FRET usually uses a lanthanide donor and a delayed reading to cut background.

The target in data set [3] is Platelet-derived growth factor receptor beta (Homo sapiens) (UniProt P09619). Put plainly: Inhibition of recombinant human PDGFRbeta at 10^-5 M using Ulight-Poly GAT[EAY(1:1:1)]n as substrate measured after 30 mins by LANCE assay relative to control.
The target in data set [4] is RAF proto-oncogene serine/threonine-protein kinase (Homo sapiens) (UniProt P04049). Put plainly: Inhibition of recombinant human RAF1 at 10^-5 M relative to control.
Data set [5] has as its target Vascular endothelial growth factor receptor 2 (Homo sapiens, UniProt P35968). Put plainly: Inhibition of recombinant human His-tagged KDR cytoplasmic domain (789 to 1356 residues) expressed in baculovirus expression system using Z'-LYTE-Tyr1 as substrate measured after 1 hr by Z'-LYTE assay.
Data set [6] has as its target T1, Aurora kinase A (Homo sapiens) (UniProt O14965).
T1 sequence (whole entry): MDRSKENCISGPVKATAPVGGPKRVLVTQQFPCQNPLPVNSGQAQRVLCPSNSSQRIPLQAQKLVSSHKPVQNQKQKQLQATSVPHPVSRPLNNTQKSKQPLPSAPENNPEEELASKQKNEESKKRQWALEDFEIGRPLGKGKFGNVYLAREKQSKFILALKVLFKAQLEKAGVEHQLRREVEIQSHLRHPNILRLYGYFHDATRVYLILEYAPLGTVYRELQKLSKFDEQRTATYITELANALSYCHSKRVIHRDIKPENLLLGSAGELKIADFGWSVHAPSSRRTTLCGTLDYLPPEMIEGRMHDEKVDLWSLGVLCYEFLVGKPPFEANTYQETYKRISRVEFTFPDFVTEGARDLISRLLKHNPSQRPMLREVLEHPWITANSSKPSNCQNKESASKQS
Put plainly: Inhibition of recombinant human Aurora-A at 10^-5 M using Ulight-RRRSLLE as substrate measured after 15 mins by LANCE assay relative to control.

In data set [7] the target is Epidermal growth factor receptor (Homo sapiens) (UniProt P00533). Put plainly: Inhibition of recombinant human EGFR at 10^-5 M using Ulight-CAGAGAIETDKEYYTVKD as substrate measured after 15 mins by LANCE assay relative to control.
The target of data set [8] is Proto-oncogene tyrosine-protein kinase Src (Homo sapiens) (UniProt P12931). Put plainly: Inhibition of recombinant human Src at 10^-5 M using Ulight-Poly GAT[EAY(1:1:1)]n as substrate measured after 10 mins by LANCE assay relative to control.

By GI50 is commonly meant the concentration that inhibits growth by half. Higher therefore signals less potent growth inhibition. What is called inhibition is the relative decrease from the control value, in per cent. By IC50 is commonly meant the concentration at which inhibition is half-maximal.

Sequence of Vascular endothelial growth factor receptor 2 (P35968 whole entry, the tested form may be a part): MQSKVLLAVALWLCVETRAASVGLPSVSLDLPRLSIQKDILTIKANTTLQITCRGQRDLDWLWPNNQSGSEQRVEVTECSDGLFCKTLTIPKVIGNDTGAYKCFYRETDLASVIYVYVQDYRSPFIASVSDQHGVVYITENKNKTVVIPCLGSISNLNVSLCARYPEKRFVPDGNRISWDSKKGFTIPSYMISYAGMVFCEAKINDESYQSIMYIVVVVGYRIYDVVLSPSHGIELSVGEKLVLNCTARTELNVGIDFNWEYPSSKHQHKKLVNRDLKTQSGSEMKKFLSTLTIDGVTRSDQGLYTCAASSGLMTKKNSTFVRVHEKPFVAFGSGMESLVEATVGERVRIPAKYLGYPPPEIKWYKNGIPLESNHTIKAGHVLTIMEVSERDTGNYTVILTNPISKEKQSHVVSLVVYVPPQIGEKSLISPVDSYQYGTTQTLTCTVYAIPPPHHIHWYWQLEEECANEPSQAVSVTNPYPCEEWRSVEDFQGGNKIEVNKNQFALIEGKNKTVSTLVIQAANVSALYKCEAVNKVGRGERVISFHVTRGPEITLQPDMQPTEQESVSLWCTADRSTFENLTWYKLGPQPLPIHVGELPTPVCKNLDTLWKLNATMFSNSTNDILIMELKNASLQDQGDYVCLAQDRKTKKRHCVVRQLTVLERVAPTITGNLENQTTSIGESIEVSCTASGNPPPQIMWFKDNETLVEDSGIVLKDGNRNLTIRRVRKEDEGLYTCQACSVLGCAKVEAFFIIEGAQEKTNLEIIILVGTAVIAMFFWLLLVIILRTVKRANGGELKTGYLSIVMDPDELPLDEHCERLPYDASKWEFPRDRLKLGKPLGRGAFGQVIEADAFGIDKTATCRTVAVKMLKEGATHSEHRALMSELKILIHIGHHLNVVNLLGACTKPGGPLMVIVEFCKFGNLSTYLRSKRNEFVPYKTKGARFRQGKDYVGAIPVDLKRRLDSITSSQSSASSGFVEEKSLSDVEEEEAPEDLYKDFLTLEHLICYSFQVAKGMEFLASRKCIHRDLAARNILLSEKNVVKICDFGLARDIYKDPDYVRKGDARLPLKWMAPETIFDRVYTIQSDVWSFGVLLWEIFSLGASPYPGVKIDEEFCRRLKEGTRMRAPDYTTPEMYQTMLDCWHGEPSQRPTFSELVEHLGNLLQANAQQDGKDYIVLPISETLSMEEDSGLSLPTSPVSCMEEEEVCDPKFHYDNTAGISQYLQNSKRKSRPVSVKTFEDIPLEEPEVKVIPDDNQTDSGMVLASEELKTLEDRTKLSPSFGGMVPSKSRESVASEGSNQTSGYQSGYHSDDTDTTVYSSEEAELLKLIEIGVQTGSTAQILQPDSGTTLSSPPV
Sequence of Cyclin-dependent kinase 1/cyclin B1 (Homo sapiens) (P06493 whole entry, looked up): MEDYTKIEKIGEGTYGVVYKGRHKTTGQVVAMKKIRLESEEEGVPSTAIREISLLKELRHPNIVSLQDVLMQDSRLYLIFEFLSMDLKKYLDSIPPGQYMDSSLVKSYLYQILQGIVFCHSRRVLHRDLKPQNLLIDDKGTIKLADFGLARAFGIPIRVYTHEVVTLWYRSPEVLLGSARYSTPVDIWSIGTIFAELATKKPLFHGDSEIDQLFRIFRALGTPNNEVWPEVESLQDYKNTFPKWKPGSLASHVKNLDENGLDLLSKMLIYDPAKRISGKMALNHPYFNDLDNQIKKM
Sequence of Cyclin-dependent kinase 1/cyclin B1 (Homo sapiens) (P14635 whole entry, looked up): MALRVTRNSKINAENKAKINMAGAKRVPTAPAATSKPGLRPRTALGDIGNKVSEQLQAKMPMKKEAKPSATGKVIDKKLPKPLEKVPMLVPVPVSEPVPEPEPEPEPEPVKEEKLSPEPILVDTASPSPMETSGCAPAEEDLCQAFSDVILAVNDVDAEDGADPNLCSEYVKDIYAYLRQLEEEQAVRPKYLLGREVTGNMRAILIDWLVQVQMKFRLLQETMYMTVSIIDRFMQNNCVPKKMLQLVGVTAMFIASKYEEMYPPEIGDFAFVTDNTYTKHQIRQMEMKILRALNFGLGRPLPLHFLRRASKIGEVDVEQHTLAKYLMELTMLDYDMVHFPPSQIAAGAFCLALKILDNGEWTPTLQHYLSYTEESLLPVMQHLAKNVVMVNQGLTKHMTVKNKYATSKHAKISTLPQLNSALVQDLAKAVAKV
Sequence of Platelet-derived growth factor receptor beta (Homo sapiens) (P09619 whole entry): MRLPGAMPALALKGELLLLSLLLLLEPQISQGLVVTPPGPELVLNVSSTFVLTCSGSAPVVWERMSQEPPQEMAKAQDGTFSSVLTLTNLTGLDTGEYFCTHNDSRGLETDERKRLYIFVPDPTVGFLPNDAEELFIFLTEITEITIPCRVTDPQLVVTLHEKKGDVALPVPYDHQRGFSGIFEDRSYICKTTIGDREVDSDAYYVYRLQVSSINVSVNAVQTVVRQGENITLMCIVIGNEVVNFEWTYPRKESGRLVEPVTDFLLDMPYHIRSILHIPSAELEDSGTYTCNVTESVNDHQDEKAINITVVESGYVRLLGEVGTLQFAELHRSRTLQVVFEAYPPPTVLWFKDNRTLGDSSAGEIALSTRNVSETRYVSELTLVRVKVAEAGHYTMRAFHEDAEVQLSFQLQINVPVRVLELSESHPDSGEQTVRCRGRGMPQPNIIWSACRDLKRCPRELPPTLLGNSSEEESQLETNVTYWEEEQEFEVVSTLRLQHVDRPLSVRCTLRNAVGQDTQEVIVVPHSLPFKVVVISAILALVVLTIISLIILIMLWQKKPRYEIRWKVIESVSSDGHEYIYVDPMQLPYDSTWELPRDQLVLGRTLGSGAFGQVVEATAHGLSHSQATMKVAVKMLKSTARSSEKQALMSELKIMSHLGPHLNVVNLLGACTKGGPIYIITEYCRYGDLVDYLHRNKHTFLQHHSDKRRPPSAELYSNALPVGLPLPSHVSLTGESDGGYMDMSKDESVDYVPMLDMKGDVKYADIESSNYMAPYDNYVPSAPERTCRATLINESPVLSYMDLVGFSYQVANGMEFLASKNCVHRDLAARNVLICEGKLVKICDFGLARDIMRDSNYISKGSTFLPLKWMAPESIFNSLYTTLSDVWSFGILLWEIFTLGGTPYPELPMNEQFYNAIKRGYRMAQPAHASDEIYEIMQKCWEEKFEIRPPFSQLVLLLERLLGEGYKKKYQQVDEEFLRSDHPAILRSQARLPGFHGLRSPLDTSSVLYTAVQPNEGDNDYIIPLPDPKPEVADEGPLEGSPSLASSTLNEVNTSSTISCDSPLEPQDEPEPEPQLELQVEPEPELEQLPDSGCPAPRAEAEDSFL
Sequence of Epidermal growth factor receptor (Homo sapiens) (P00533 whole entry): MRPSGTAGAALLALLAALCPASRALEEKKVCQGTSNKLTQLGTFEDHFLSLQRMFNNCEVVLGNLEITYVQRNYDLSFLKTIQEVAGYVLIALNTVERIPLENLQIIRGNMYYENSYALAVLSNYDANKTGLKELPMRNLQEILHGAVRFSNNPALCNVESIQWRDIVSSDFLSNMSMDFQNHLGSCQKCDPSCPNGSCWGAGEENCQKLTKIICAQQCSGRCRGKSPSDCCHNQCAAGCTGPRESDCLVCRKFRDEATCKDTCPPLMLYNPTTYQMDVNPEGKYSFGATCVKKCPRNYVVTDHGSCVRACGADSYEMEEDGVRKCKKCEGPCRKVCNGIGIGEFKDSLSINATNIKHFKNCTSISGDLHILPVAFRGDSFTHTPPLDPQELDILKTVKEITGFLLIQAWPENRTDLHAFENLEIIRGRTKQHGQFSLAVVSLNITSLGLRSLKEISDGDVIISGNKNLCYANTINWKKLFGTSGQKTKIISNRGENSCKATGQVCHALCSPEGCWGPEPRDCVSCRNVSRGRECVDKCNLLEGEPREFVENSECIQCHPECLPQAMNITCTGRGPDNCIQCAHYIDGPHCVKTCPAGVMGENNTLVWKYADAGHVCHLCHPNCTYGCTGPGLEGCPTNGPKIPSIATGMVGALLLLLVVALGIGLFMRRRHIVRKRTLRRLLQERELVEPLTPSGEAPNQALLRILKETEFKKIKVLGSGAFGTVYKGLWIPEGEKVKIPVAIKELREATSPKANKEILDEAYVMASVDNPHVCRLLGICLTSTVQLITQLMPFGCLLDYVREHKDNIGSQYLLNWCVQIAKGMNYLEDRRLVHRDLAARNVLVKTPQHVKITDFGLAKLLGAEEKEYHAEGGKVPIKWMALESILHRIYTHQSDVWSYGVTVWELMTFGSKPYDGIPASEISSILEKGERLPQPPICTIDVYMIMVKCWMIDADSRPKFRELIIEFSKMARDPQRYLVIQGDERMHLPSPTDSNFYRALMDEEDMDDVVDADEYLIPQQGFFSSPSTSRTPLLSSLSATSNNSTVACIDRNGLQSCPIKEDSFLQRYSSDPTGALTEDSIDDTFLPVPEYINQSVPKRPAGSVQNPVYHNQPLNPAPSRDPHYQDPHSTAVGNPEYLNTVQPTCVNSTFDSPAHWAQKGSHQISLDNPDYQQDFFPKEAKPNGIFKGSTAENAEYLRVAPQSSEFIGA
Sequence of Proto-oncogene tyrosine-protein kinase Src (Homo sapiens) (P12931 2-536 limits assumed): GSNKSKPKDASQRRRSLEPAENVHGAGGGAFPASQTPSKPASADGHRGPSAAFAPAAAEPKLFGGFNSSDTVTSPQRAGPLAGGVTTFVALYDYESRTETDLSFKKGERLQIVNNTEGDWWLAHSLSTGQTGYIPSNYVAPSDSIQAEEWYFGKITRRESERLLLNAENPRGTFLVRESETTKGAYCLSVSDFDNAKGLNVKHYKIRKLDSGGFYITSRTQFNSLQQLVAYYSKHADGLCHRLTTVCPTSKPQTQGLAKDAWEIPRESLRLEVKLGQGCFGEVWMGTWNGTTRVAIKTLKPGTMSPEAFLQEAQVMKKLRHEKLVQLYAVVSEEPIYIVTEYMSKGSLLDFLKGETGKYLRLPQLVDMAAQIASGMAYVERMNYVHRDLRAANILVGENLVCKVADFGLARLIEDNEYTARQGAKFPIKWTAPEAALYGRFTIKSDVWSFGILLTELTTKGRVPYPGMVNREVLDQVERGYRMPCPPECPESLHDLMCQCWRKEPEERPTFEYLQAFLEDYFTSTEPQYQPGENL

In the case of `COc1ccc2c(c1)SCc1cnc(Nc3cccc(Cl)c3)nc1-2`, the values for the GI50 with MSTO-211H, with HeLa and with A-431 were 5.6 µM, 11.9 µM and 8.25 µM, respectively. The concentration for 50% growth inhibition (GI50) at 72 h in data set [1] came out at 11.2 µM.

`Clc1cccc(Nc2ncc3c(n2)-c2ccccc2SC3)c1`: the values for the GI50 in the data set with MSTO-211H, in the data set with HeLa and in the data set with A-431 were 6.1 µM, more than 20 µM and 10.4 µM, respectively. Halving of growth in data set [1] (GI50 at 72 h) required 7.13 µM.

Consider `Clc1ccc2c(c1)SCc1cnc(Nc3cccc(Br)c3)nc1-2`, for which the GI50 with MSTO-211H was 8.5 µM; with HeLa, more than 20 µM; in the data set on A-431, 17 µM. The same molecule showed a GI50 at 72 h in [1] of 7.11 µM.

As for `COc1cccc(Nc2ncc3c(n2)-c2ccccc2SC3)c1`, the figures for the concentration for 50% growth inhibition (GI50) in the data set on MSTO-211H, in the data set with HeLa and in the data set with A-431 were 0.8 µM, 6.03 µM and 9.43 µM, respectively. The molecule further gave a 50% growth inhibitory concentration (GI50) at 72 h in data set [1] of 0.8 µM.

On to `COc1ccc(Nc2ncc3c(n2)-c2ccccc2SC3)cc1OC`, for which the inhibition in [2] worked out at 47.4%; in data set [3] it was 39.9%; in data set [4] it was 6.1%; in [6] it was 88.6%; in data set [7], 6.5%; in [8], 53%. In addition, the GI50 in the data set on MSTO-211H was determined as 1.63 µM; in the data set with HeLa, 1.5 µM; in the data set with A-431 it was 2.32 µM. Also, the IC50 in [5] turned out to be 0.11 µM. The GI50 at 72 h in data set [1] is 1.5 µM.

`Fc1cccc(Nc2ncc3c(n2)-c2ccccc2SC3)c1`: the 50% growth inhibitory concentration (GI50) with MSTO-211H amounted to 2.06 µM; in the data set on HeLa, 14 µM; with A-431, 9.76 µM. The molecule also displayed a GI50 at 72 h in data set [1] of 4.51 µM.

With `COc1ccc(Nc2ncc3c(n2)-c2ccc(Cl)cc2SC3)cc1OC`, the GI50 in the data set with MSTO-211H was determined as 4.4 µM; in the data set with HeLa it was 3.42 µM; in the data set on A-431 it was 2.23 µM. The molecule also registered a GI50 at 72 h in [1] of 2.53 µM.

Regarding `Clc1cccc(Nc2ncc3c(n2)-c2ccc(Cl)cc2SC3)c1`, the GI50 is 7.78 µM in the data set with MSTO-211H, more than 20 µM in the data set on HeLa and more than 20 µM in the data set on A-431. Also, the GI50 at 72 h in [1] is 16.5 µM.

Take `COc1ccc2c(c1)SCc1cnc(Nc3cccc(F)c3)nc1-2`: the values for the concentration for 50% growth inhibition (GI50) in the data set on MSTO-211H, in the data set with HeLa and with A-431 were 13 µM, 10.3 µM and 15.5 µM, respectively. Besides, it took 11.5 µM to inhibit growth in [1] by half (GI50 at 72 h).

With `COc1cccc(Nc2ncc3c(n2)-c2ccc(OC)cc2SC3)c1`, the GI50 in the data set with MSTO-211H was found to be 2.57 µM; in the data set on HeLa, 2.8 µM; in the data set on A-431, 2.1 µM. Also, in [1], the GI50 at 72 h is 2.49 µM.

For `COc1ccc2c(c1)SCc1cnc(Nc3ccc(OC)c(OC)c3)nc1-2`, the values for the GI50 with MSTO-211H, with HeLa and in the data set with A-431 were more than 20 µM, 18.8 µM and 6.06 µM, respectively. Further, the GI50 at 72 h in [1] came out at 10.8 µM.

Regarding `COc1ccc2c(c1)SCc1cnc(Nc3cc(OC)c(OC)c(OC)c3)nc1-2`, the GI50 in the data set with MSTO-211H amounted to 0.92 µM; with HeLa it was 0.63 µM; in the data set on A-431, 1.75 µM. In data set [1], this molecule came in with a GI50 at 72 h of 3.71 µM.

Take `Brc1cccc(Nc2ncc3c(n2)-c2ccccc2SC3)c1`: the GI50 in the data set with MSTO-211H is 7.67 µM; in the data set on HeLa it was more than 20 µM; with A-431, 10.6 µM. Also, in data set [1], growth was halved (GI50 at 72 h) at 7 µM.

For `COc1ccc2c(c1)SCc1cnc(Nc3cccc(C(F)(F)F)c3)nc1-2`, the GI50 in the data set on MSTO-211H turned out to be 9.04 µM; in the data set with HeLa, 6.02 µM; in the data set with A-431, 6.24 µM. This molecule also came in with a GI50 at 72 h in data set [1] of 4.55 µM.

With `Fc1cccc(Nc2ncc3c(n2)-c2ccc(Cl)cc2SC3)c1`, the GI50 is more than 20 µM with MSTO-211H, 20 µM in the data set on HeLa and 18.2 µM in the data set on A-431. For the same molecule, in data set [1], halving of growth (GI50 at 72 h) required 18.2 µM.

Take `COc1cc(Nc2ncc3c(n2)-c2ccc(Cl)cc2SC3)cc(OC)c1OC`: the GI50 in the data set on MSTO-211H turned out to be 3.4 µM; with HeLa, 3.46 µM; in the data set with A-431, 4.27 µM. This molecule came in with a GI50 at 72 h in [1] of 2.54 µM.

As for `FC(F)(F)c1cccc(Nc2ncc3c(n2)-c2ccc(Cl)cc2SC3)c1`, the GI50 in the data set with MSTO-211H is 3.18 µM; with HeLa it was more than 20 µM; in the data set on A-431 it was 10 µM. This molecule displayed a GI50 at 72 h in data set [1] of 10.5 µM.

On to `COc1cccc(Nc2ncc3c(n2)-c2ccc(Cl)cc2SC3)c1`, for which the values for the GI50 with MSTO-211H, in the data set with HeLa and in the data set on A-431 were 6.83 µM, more than 20 µM and 16.8 µM, respectively. For the same molecule, it took 14.2 µM to inhibit growth in data set [1] by half (GI50 at 72 h).

As for `COc1cc(Nc2ncc3c(n2)-c2ccccc2SC3)cc(OC)c1OC`, the GI50 was found to be 1.08 µM in the data set on MSTO-211H, 1.26 µM in the data set on HeLa and 1.92 µM in the data set on A-431. In [1], this molecule came in with a GI50 at 72 h of 1.99 µM.

Turning to `COc1ccc2c(c1)SCc1cnc(Nc3cccc(Br)c3)nc1-2`, the GI50 was found to be 2.2 µM in the data set with MSTO-211H, 2.93 µM in the data set with HeLa and 4.77 µM in the data set on A-431. This molecule had a GI50 at 72 h in [1] of 1.89 µM.

Turning to `Cc1cc(C)c(/C=C2\C(=O)Nc3ccccc32)[nH]1` [SEMAXANIB], the results for the GI50 with MSTO-211H, with HeLa and in the data set with A-431 were 27 µM, 38 µM and 37 µM, respectively.

In the case of `FC(F)(F)c1cccc(Nc2ncc3c(n2)-c2ccccc2SC3)c1`, the GI50 in the data set on MSTO-211H was 11.8 µM; in the data set with HeLa, more than 20 µM; in the data set with A-431, 13.5 µM. This molecule returned a GI50 at 72 h in data set [1] of 5.02 µM.

These data come from ChEMBL document CHEMBL4229346, “New insights in the structure-activity relationships of 2-phenylamino-substituted benzothiopyrano[4,3-d]pyrimidines as kinase inhibitors” (Eur J Med Chem, 2018).
